# Measurements reported in ChEMBL document CHEMBL3526024, “Oral availability of cefadroxil depends on ABCC3 and ABCC4” (Drug Metab Dispos, 2012).
# Key:
# [1] = target: ATP-binding cassette sub-family C member 2 (Homo sapiens, UniProt Q92887); assay: Inhibition of recombinant human ABCC2 expressed in insect Sf21 cell plasma membrane vesicles assessed as inhibition of transporter-mediated [3H]-estradiol-17beta-glucuronide uptake by liquid scintillation counting analysis; type: ADME, cell membranes
# Chain of ATP-binding cassette sub-family C member 2 (Q92887 whole entry): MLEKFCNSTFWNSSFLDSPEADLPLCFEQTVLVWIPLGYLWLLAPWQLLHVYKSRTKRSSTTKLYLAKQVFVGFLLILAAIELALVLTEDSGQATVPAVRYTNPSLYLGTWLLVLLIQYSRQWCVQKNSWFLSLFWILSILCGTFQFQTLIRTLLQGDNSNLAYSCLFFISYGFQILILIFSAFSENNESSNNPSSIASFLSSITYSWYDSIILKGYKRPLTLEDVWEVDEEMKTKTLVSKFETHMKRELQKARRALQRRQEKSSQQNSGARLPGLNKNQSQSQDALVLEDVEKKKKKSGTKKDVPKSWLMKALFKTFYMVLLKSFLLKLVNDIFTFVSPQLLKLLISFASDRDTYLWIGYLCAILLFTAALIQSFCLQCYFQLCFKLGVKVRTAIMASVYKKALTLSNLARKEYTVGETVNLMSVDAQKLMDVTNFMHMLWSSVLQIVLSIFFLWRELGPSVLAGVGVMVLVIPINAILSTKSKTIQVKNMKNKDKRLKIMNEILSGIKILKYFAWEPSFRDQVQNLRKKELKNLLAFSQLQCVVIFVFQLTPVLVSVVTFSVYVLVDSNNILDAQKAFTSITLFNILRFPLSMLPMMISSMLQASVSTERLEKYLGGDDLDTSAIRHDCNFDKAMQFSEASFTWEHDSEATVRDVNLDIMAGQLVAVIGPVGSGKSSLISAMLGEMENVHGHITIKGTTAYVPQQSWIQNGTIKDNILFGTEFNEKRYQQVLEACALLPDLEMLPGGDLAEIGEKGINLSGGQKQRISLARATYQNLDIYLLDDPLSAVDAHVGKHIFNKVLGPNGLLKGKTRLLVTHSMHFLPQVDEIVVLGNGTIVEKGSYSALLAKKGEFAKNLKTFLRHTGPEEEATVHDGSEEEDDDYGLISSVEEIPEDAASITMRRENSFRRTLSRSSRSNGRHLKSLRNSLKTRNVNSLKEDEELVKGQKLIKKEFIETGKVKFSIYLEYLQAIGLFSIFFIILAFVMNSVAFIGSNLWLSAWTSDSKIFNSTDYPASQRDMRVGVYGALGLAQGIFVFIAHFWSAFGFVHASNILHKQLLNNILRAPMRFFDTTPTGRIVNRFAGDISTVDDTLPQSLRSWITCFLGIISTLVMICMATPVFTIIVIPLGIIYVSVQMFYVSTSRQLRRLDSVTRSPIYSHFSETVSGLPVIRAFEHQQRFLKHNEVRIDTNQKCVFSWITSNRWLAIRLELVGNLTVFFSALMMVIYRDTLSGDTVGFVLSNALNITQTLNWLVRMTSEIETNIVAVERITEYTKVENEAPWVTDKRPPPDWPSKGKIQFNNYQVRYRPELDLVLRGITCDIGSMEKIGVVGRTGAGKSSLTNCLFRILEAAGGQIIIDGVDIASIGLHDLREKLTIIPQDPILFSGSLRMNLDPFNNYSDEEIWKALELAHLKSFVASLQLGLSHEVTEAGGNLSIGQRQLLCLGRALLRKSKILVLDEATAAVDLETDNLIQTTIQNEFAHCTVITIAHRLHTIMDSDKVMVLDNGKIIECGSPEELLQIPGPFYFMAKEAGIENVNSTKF
# [2] = target: T1, ATP-binding cassette sub-family C member 3 (Homo sapiens, UniProt O15438); assay: Inhibition of recombinant human ABCC3 expressed in baculovirus infected insect Sf21 cell plasma membrane vesicles assessed as inhibition of transporter-mediated [3H]-estradiol-17beta-glucuronide uptake by liquid scintillation counting analysis; type: ADME
# T1 sequence (O15438 whole entry): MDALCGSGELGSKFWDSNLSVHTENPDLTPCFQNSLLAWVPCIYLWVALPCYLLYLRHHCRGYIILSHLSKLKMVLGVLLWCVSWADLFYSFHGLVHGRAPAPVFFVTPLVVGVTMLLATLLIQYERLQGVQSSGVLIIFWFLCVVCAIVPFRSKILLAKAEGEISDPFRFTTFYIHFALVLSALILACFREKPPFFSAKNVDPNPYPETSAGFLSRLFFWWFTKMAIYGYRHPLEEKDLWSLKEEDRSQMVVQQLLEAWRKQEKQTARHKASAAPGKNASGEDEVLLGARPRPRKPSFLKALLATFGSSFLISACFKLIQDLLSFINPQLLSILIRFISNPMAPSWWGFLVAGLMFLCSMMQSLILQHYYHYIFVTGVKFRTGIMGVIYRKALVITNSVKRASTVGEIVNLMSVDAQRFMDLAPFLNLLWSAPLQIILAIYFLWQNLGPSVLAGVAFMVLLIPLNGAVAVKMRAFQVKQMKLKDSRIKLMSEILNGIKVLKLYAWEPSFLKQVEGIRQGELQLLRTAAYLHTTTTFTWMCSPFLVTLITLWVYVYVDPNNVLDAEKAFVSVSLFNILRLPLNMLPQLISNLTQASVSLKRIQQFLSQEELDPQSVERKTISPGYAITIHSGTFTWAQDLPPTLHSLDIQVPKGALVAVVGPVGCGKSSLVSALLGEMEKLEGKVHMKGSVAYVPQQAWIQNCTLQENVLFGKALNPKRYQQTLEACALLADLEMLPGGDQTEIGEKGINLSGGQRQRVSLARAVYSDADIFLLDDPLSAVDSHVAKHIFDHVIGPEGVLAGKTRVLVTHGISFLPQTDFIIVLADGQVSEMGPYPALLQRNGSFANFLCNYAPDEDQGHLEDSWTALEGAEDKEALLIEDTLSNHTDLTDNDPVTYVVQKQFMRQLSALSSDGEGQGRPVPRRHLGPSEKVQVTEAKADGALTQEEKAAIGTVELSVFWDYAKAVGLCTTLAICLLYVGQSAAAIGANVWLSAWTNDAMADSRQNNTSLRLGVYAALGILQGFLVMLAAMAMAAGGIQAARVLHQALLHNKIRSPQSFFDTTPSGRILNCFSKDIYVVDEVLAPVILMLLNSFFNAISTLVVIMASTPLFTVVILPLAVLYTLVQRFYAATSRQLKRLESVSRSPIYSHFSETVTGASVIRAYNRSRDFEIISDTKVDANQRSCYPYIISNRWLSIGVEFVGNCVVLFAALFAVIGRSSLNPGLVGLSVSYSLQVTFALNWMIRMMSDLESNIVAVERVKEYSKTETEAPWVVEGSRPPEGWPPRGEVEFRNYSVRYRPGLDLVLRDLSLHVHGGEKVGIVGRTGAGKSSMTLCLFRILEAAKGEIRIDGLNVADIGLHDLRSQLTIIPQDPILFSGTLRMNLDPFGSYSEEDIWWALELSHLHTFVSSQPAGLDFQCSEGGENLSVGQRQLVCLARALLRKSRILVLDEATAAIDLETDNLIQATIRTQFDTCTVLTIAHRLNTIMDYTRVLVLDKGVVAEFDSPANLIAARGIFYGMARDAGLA
# [3] = target: T2, ATP-binding cassette sub-family C member 4 (Homo sapiens, UniProt O15439); assay: Inhibition of recombinant human ABCC4 expressed in baculovirus infected insect Sf21 cell plasma membrane vesicles assessed as inhibition of transporter-mediated [3H]-estradiol-17beta-glucuronide uptake by liquid scintillation counting analysis; type: ADME
# T2 sequence (O15439 whole entry): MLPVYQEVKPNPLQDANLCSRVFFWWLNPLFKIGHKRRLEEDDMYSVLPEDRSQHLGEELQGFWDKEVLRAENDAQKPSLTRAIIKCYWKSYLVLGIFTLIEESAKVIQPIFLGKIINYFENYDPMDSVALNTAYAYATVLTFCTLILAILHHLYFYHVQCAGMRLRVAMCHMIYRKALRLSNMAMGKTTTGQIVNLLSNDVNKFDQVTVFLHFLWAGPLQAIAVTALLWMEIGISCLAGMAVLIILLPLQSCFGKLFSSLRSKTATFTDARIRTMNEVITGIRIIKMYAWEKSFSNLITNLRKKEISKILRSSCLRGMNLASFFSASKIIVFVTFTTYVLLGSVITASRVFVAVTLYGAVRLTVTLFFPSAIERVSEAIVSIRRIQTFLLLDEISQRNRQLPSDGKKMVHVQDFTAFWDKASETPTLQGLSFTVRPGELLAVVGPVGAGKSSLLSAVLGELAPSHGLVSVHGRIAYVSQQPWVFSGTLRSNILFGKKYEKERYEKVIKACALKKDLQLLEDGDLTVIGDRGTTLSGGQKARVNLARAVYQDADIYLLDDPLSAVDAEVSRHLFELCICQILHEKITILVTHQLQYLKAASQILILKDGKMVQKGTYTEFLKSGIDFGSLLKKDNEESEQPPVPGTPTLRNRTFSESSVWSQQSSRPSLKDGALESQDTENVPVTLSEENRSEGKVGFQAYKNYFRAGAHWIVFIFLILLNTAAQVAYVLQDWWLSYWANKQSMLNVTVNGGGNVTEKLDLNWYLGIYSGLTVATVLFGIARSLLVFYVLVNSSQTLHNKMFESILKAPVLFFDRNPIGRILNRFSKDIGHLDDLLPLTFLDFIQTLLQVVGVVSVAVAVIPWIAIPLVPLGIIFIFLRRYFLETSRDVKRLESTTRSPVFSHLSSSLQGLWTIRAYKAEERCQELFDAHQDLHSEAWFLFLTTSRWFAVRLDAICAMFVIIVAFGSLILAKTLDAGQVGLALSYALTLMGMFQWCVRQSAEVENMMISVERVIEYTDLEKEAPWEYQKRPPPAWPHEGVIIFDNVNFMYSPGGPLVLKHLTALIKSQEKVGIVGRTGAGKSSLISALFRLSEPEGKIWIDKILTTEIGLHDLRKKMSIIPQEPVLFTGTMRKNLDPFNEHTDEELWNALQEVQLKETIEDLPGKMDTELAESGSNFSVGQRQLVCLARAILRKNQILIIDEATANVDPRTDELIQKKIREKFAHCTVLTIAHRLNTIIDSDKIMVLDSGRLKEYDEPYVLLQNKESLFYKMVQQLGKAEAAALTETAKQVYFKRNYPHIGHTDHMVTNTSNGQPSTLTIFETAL
# Jejunum [4] = assay: Drug transport across apical to basolateral side in Abcc3/Abcc4-deficient mouse jejunal tissue explants at 50 uM by ussing chamber analysis; type: ADME
# Jejunum [5] = assay: Drug transport across ligated jejunum in wild type mouse assessed as drug level in portal blood at 5 uM by liquid scintillation counting analysis; type: ADME, tissue-based; details: TDE = time-dependent effect
# Jejunum [6] = assay: Drug transport across ligated jejunum in Abcc3-deficient mouse assessed as drug level in portal blood at 5 uM by liquid scintillation counting analysis; type: ADME, tissue-based
# Jejunum [7] = assay: Drug transport across ligated jejunum in Abcc4-deficient mouse assessed as drug level in portal blood at 5 uM by liquid scintillation counting analysis; type: ADME, tissue-based
# Jejunum [8] = assay: Drug transport across ligated jejunum in Abcc3/Abcc4-deficient mouse assessed as drug level in portal blood at 5 uM by liquid scintillation counting analysis; type: ADME, tissue-based
# Jejunum [9] = assay: Drug transport across ligated jejunum in Abcc3/Abcc4-deficient mouse assessed as drug level in peripheral blood at 5 uM by liquid scintillation counting analysis; type: ADME, tissue-based; details: other
# Jejunum [10] = assay: Drug transport across ligated jejunum in wild type mouse assessed as drug level in peripheral blood at 5 uM by liquid scintillation counting analysis; type: ADME, tissue-based; details: other
# [11] = Drug uptake in bile of Abcc3/Abcc4-deficient mouse at 5 uM by liquid scintillation counting analysis; type: ADME, tissue-based; details: in vivo
# Intestine [12] = assay: Drug level in Abcc3-deficient mouse intestine at 5 uM by liquid scintillation counting analysis; type: ADME, tissue-based; details: in vivo
# [13] = Ratio of recombinant human ABCC4-mediated drug uptake in insect Sf21 cell plasma membrane vesicles to recombinant human ABCC2-mediated drug uptake in insect Sf21 cell plasma membrane vesicles; type: ADME, cell membranes
# [14] = Ratio of recombinant human ABCC4-mediated drug uptake in insect Sf21 cell plasma membrane vesicles to recombinant human ABCC3-mediated drug uptake in insect Sf21 cell plasma membrane vesicles; type: ADME, cell membranes
# [15] = target: Multidrug resistance-associated protein 1 (Homo sapiens, UniProt P33527); assay: Activity of recombinant human ABCC1 expressed in baculovirus infected insect Sf21 cell plasma membrane vesicles assessed as transporter-mediated drug uptake at 10 uM by liquid scintillation counting analysis in presence of ATP; type: ADME; details: sf21, 10 µM, TDE = time-dependent effect
# Chain of Multidrug resistance-associated protein 1 (P33527 whole entry): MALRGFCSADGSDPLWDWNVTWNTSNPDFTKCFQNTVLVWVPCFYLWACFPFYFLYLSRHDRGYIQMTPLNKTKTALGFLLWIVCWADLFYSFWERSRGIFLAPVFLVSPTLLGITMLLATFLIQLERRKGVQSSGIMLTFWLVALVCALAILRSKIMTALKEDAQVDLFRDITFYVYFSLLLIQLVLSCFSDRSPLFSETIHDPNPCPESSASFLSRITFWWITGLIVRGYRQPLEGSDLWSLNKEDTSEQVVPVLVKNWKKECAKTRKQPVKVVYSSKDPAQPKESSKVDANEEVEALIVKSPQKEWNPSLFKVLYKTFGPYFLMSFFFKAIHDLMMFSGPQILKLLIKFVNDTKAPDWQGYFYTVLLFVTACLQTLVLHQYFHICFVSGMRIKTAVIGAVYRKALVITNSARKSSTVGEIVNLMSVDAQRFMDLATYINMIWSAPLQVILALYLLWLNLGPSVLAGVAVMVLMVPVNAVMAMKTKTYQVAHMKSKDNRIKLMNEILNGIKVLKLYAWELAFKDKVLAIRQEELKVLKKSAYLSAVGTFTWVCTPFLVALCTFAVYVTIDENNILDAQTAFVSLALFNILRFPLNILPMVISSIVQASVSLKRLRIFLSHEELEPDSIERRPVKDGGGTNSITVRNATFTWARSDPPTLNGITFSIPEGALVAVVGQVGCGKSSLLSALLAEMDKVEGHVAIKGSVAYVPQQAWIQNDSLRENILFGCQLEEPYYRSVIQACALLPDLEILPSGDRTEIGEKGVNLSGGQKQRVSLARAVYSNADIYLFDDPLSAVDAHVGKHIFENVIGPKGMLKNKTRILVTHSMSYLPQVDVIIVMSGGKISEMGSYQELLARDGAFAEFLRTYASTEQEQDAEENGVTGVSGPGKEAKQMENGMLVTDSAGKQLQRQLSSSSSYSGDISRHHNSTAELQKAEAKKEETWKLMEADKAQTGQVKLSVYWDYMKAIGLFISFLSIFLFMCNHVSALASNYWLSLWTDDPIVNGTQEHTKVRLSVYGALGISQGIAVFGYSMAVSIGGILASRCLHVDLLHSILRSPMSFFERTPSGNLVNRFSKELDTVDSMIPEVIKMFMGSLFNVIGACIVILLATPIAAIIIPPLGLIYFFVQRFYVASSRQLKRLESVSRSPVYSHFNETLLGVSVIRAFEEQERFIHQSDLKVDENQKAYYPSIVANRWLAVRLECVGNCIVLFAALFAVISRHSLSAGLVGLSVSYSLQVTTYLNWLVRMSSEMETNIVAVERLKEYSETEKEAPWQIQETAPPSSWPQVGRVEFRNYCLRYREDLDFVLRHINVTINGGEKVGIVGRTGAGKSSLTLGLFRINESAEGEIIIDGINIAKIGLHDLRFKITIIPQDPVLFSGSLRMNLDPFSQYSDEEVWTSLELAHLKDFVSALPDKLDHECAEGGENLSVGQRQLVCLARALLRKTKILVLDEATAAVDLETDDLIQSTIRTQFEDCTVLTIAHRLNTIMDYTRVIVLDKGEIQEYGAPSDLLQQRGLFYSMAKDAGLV
# [16] = target: T1, ATP-binding cassette sub-family C member 3; assay: Activity of recombinant human ABCC3 expressed in baculovirus infected insect Sf21 cell plasma membrane vesicles assessed as transporter-mediated drug uptake at 10 uM by liquid scintillation counting analysis in presence of ATP; type: ADME; details: sf21, 10 µM, TDE = time-dependent effect
# [17] = target: T2, ATP-binding cassette sub-family C member 4; assay: Activity of recombinant human ABCC4 expressed in baculovirus infected insect Sf21 cell plasma membrane vesicles assessed as transporter-mediated drug uptake at 10 uM by liquid scintillation counting analysis in presence of ATP; type: ADME; details: sf21, 10 µM, TDE = time-dependent effect
# Jejunum [18] = assay: Drug transport across apical to basolateral side in Abcc4-deficient mouse jejunal tissue explants at 50 uM by ussing chamber analysis; type: ADME
# Jejunum [19] = assay: Drug transport across apical to basolateral side in Abcc4-deficient mouse jejunal tissue explants at 5 uM by ussing chamber analysis relative to wild type mouse; type: ADME
# Jejunum [20] = assay: Drug transport across apical to basolateral side in Abcc3/Abcc4-deficient mouse jejunal tissue explants at 5 uM by ussing chamber analysis relative to wild type mouse; type: ADME
# Intestine [21] = assay: Drug level in Abcc4-deficient mouse intestine at 5 uM by liquid scintillation counting analysis; type: ADME, tissue-based; details: in vivo
# Intestine [22] = assay: Drug level in Abcc3/Abcc4-deficient mouse intestine at 5 uM by liquid scintillation counting analysis; type: ADME, tissue-based; details: in vivo
# Intestine [23] = assay: Drug level in wild type mouse intestine at 5 uM by liquid scintillation counting analysis; type: ADME, tissue-based; details: in vivo
# Kidney [24] = assay: Drug level in Abcc3-deficient mouse kidney at 5 uM by liquid scintillation counting analysis; type: ADME, tissue-based; details: in vivo
# Kidney [25] = assay: Drug level in Abcc4-deficient mouse kidney at 5 uM by liquid scintillation counting analysis; type: ADME, tissue-based; details: in vivo
# Kidney [26] = assay: Drug level in Abcc3/Abcc4-deficient mouse kidney at 5 uM by liquid scintillation counting analysis; type: ADME, tissue-based; details: in vivo
# Kidney [27] = assay: Drug level in wild type mouse kidney at 5 uM by liquid scintillation counting analysis; type: ADME, tissue-based; details: in vivo
# Liver [28] = assay: Drug level in Abcc3-deficient mouse liver at 5 uM by liquid scintillation counting analysis; type: ADME, tissue-based; details: in vivo
# Liver [29] = assay: Drug level in Abcc4-deficient mouse liver at 5 uM by liquid scintillation counting analysis; type: ADME, tissue-based; details: in vivo
# Liver [30] = assay: Drug level in Abcc3/Abcc4-deficient mouse liver at 5 uM by liquid scintillation counting analysis; type: ADME, tissue-based; details: in vivo
# Liver [31] = assay: Drug level in wild type mouse liver at 5 uM by liquid scintillation counting analysis; type: ADME, tissue-based; details: in vivo
# [32] = Drug excretion in Abcc3-deficient mouse urine at 5 uM by liquid scintillation counting analysis; type: ADME, tissue-based; details: in vivo
# [33] = Drug excretion in Abcc4-deficient mouse urine at 5 uM by liquid scintillation counting analysis; type: ADME, tissue-based; details: in vivo
# [34] = Drug excretion in Abcc3/Abcc4-deficient mouse urine at 5 uM by liquid scintillation counting analysis; type: ADME, tissue-based; details: in vivo
# [35] = Drug excretion in wild type mouse urine at 5 uM by liquid scintillation counting analysis; type: ADME, tissue-based; details: in vivo
smiles,measurement,setting,value
N[C@@H](C(=O)N[C@@H]1C(=O)N2C(C(=O)O)=C(Cl)CS[C@H]12)c1ccccc1 [CEFACLOR ANHYDROUS],inhibition (INH),[1],Active
same,inhibition (INH),[2],Active
same,inhibition (INH),[3],Active
CO[C@@]1(NC(=O)Cc2cccs2)C(=O)N2C(C(=O)O)=C(COC(N)=O)CS[C@@H]21 [CEFOXITIN],inhibition (INH),[1],Active
same,inhibition (INH),[2],Active
same,inhibition (INH),[3],Active
CO/N=C(\C(=O)N[C@@H]1C(=O)N2C(C(=O)O)=C(COC(N)=O)CS[C@H]12)c1ccco1 [CEFUROXIME],inhibition (INH),[1],Active
same,inhibition (INH),[2],Active
same,inhibition (INH),[3],Active
CC1=C(C(=O)O)N2C(=O)[C@@H](NC(=O)[C@H](N)C3=CCC=CC3)[C@H]2SC1 [CEPHRADINE],inhibition (INH),[1],Active
same,inhibition (INH),[2],Active
same,inhibition (INH),[3],Active
CO/N=C(\C(=O)N[C@@H]1C(=O)N2C(C(=O)O)=C(CSc3nc(=O)c(=O)[nH]n3C)CS[C@H]12)c1csc(N)n1 [CEFTRIAXONE],inhibition (INH),[1],Active
same,inhibition (INH),[2],Active
same,inhibition (INH),[3],Active
CO[C@@]1(NC(=O)CSCC#N)C(=O)N2C(C(=O)O)=C(CSc3nnnn3C)CS[C@@H]21 [CEFMETAZOLE],inhibition (INH),[1],Active
same,inhibition (INH),[2],Active
same,inhibition (INH),[3],Active
Cn1nnnc1SCC1=C(C(=O)O)N2C(=O)[C@@H](NC(=O)[C@H](O)c3ccccc3)[C@H]2SC1 [CEFAMANDOLE],inhibition (INH),[1],Active
same,inhibition (INH),[2],Active
same,inhibition (INH),[3],Active
CC1=C(C(=O)O)N2C(=O)[C@@H](NC(=O)[C@H](N)c3ccccc3)[C@H]2SC1 [CEPHALEXIN ANHYDROUS],inhibition (INH),[1],Active
same,inhibition (INH),[2],Active
same,inhibition (INH),[3],Active
CC1=C(C(=O)O)N2C(=O)[C@@H](NC(=O)[C@H](N)c3ccc(O)cc3)[C@H]2SC1 [CEFADROXIL],Drug transport,Jejunum [4],Active
same,Drug transport,Jejunum [5],tde
same,Drug transport,Jejunum [6],Active
same,Drug transport,Jejunum [7],Active
same,Drug transport,Jejunum [8],Not Active
same,Drug transport,Jejunum [9],Not Active
same,Drug transport,Jejunum [10],Active
same,Drug uptake,[11],< 0.4%
same,Drug uptake,Intestine [12],Active
same,Ratio,[13],3
same,Ratio,[14],6
same,Activity,[15],tde
same,Activity,[16],tde
same,Activity,[17],tde
same,Drug transport,Jejunum [18],Active
same,Drug transport,Jejunum [19],50%
same,Drug transport,Jejunum [20],50%
same,Drug uptake,Intestine [21],Active
same,Drug uptake,Intestine [22],Active
same,Drug uptake,Intestine [23],Active
same,Drug uptake,Kidney [24],Active
same,Drug uptake,Kidney [25],Active
same,Drug uptake,Kidney [26],Active
same,Drug uptake,Kidney [27],Active
same,Drug uptake,Liver [28],Active
same,Drug uptake,Liver [29],Active
same,Drug uptake,Liver [30],Active
same,Drug uptake,Liver [31],Active
same,Drug excretion,[32],metabolite_detected
same,Drug excretion,[33],metabolite_detected
same,Drug excretion,[34],metabolite_detected
same,Drug excretion,[35],metabolite_detected
CCN1CCN(C(=O)N[C@@H](C(=O)N[C@@H]2C(=O)N3C(C(=O)O)=C(CSc4nnnn4C)CS[C@H]23)c2ccc(O)cc2)C(=O)C1=O [CEFOPERAZONE],inhibition (INH),[1],Active
same,inhibition (INH),[2],Active
same,inhibition (INH),[3],Active
